From patent US10851051B2, “Compositions and methods for treating multiple myeloma” (THE BROAD INSTITUTE, INC., priority 2015, dated 2020)
“Also recorded” adds a separate entry of the source.

How the values were obtained:
[1] = tested on: MOLP5 cells; assay: Growth inhibition of MOLP5 cells by BRD9647 analogs; assay type: cell-based; conditions: FIG. 1E; for growth inhibition in MOLP5 cells compared with other analogs: various concentrations
Excerpt: (§1) BRD9647 was identified in a phenotypic screening of multiple myeloma cells as a growth inhibitor of certain stroma-dependent myeloma cells. […] FIG. 1B is a plot showing viability of multiple myeloma cell lines (primary multiple myeloma (primary MM) cells (with stroma), MOLP5 (with stroma), and MM1S (with stroma)) treated with various concentrations of BRD9647. For these experiments GFP-labeled MOLP5 and MM1S cells were co-cultured with unlabeled primary human bone marrow stromal cells in 384-well plates and exposed to increasing concentrations of BRD9647 for 3 days. At the end of this period, wells were imaged in the GFP channel with the IXMicro automated high-throughput microscope (Molecular Devices), remaining GFP positive cells were quantified using the MetaXpress software (Molecular Devices) and expressed as percentages of DMSO (vehicle) controls. Unlabeled primary MM cells were similar treated with BRD9647 but were stained with the calcein-acetoxymethyl ester dye at the end of the treatment period. The dye fluoresces green inside viable cells that contain esterase enzymes. Viable cells were imaged and quantified similar to GFP-positive myeloma cell-lines using size, shape and staining intensity to distinguish primary MM from stromal cells. FIG. 1C depicts images showing the viability of primary MM and MOLP5 myeloma cell lines that received BRD9647 treatment in the presence and absence of stromal co-culture. […] Viable cells in these experiments after 3 days of compound exposure were measured using the Cell Titer Glo reagent (Promega).
Fluoro-benzoyl analogs of BRD9647 were synthesized and used to study the structure-function relationship between BRD9647 and each compound's ability to inhibit growth in MOLP5 cells. […] The BRD9647 analogs measured were either mono-fluorinated at the para (FIG. 1F), meta (FIG. 1G), or ortho (FIG. 1H) positions of the benzoyl ring, or tri-fluorinated at both meta positions and one ortho position of the ring (FIG. 1I). […]

[2] = tested on: stroma-dependent myeloma cells (primary MM, MOLP5); assay: Viability of stroma-dependent myeloma cells co-cultured with bone marrow stromal cells (imaging, 3 days); assay type: cell-based; conditions: primary MM and MOLP5, FIG. 1B-1C
Excerpt: as §1, with “cells.” for “cells. FIG. 1C depicts images showing the viability of primary MM and MOLP5 myeloma cell lines that received BRD9647 treatment in the presence and absence of stromal co-culture.”

[3] = tested on: ~100 cell lines from the Broad Institute CTD2 Center; assay: Viability of ~100 Broad CTD2 cell lines (Cell Titer Glo, 3 days); assay type: cell-based; conditions: 3 days compound exposure, FIG. 1D
Excerpt: as §1, with “cells.” for “cells. FIG. 1C depicts images showing the viability of primary MM and MOLP5 myeloma cell lines that received BRD9647 treatment in the presence and absence of stromal co-culture.”

[4] = tested on: MOLP5 cells expressing AZIN1-WT; assay: Viability of MOLP5 cells expressing wild-type AZIN1 under BRD9647; assay type: cell-based; conditions: FIG. 4D, 5A; lentiviral AZIN1-WT
Excerpt: MOLP5 cells sensitive to BRD9647 contained a mutation in AZIN1 (FIG. 4B). The mutation in AZIN1 was S367G. MOLP5 cells raised to be resistant to BRD9647 through serial exposures to increasing concentrations of BRD9647 over 3 months (MOLP5-R) lost the AZIN1 mutation that conferred sensitivity to BRD9647 (FIG. 4C). For experiments in FIGS. 4B and 4C, RNA was isolated from MOLP5 or MOLP5-R cells and converted into complementary DNA (cDNA). The AZIN1 polynucleotide was PCR amplified from cDNA then subject to Sanger sequencing. […] The growth of MOLP5 AZIN1-WT expressing cells in the presence of BRD9647 resembles the growth of untreated MOLP5 cells. For these experiments, lentiviral vectors (pLX_TRC304) encoding the AZIN1 open reading frame with the wild-type sequence or S367G mutant sequence and the puromycin resistance gene were transduced into MOLP5 cells which were then subjected to puromycin selection. […] A schematic of AZIN1 S367G's role in polyamine synthesis is shown at FIG. 6.

[5] = tested on: MOLP5 cells; assay: Spermidine rescue of growth inhibition in MOLP5 cells; assay type: cell-based; conditions: MOLP5 + 10 or 100 μM spermidine, FIG. 7A
Protocol: MOLP5 cells with 100 μM spermidine (“MOLP5+100 μM Spd”), and MOLP5 cells with 10 μM spermidine (“MOLP5+10 μM Spd”), each.
Polyamines such as spermidine rescued the effects of BRD9647. FIG. 7B depicts the structure of spermidine. […] However, BRD9647 may be reactive with spermidine, as polyamines such as spermidine or spermine can directly react with BRD9647 via a benzoylation reaction (FIG. 7C) to form benzoylated polyamine products (FIG. 8 and FIG. 9).

[6] = tested on: MOLP5 cells; assay: Gene expression profiling of treated MOLP5 cells (microarray, GSEA); assay type: cell-based; conditions: 10 μM, 6 hours
Protocol: Gene-expression analysis identified endoplasmic reticulum (ER) stress as an effect of BRD9647 in BRD9647-sensitive cells. […] For this experiment, MOLP5 cells were exposed to DMSO or 10 μM BRD9647 for 6 hours then subject to total RNA extraction using the TRIzol reagent (Thermo-Fisher). RNA was then hybridized to the Affymetrix U133 2.0 Plus oligonucleotide microarray (Affymetrix) and relative transcripts quantified following the manufacturer's protocol. Differential gene expression analysis was conducted using the Comparative Marker Selection module of GenePattern software (www.broadinstitute.org/genepattern). […] As show in FIG. 2C, Connectivity Map (CMap) analysis was conducted (www.broadinstitute.org/cmap) to compare a gene expression profile of […] with known gene expression profiles of over 5000 compounds to identify potential drugs showing a similar mechanism of action. Protein synthesis inhibitors of interest identified by the analysis are shown in boxes (FIG. 2C).

[7] = tested on: benzoylated lysines on proteins; assay: Immunoblot for benzoylated lysines (Kbz antibody) in treated cells; assay type: cell-based; conditions: versus DMSO controls, FIG. 15
[8] = tested on: purified proteins (recombinant proteins, histones); assay: Incubation of labeled compound with purified proteins (SDS-PAGE autoradiography, mass spectrometry); assay type: biochemical; conditions: FIG. 12, 13
[9] = tested on: BRD9647-sensitive cells; assay: Tracing of radiolabeled compound in cell extracts (TRIzol, TLC, protein extract); assay type: cell-based; conditions: TRIzol or protein extract of treated cells, FIG. 10, 14
Protocol: FIG. 10 is a diagram showing results of a tracing experiment with a TRIzol treated extract of cells treated with 10 μM ^14C-BRD9647 for six hours.
In FIG. 14, the workflow and results of a ^14C-BRD9647 tracing experiment with protein extract from cells treated with ^14C-BRD9647 are shown.

COc1ccc(N(C(=O)c2ccc(F)cc2)S(=O)(=O)c2cc(OC)ccc2OC)cc1 [Compound 1]
growth inhibitory activity in MOLP5 cells compared with BRD9647 ([1]; FIG. 3): similar, if not increased efficacy to BRD9647 | growth inhibition in MOLP5 cells compared with other analogs [1]: increased growth inhibition at each concentration of active over m-fluorobenzoyl (zb-179-2) or o-fluorobenzoyl analogs (zb-16-14)

COc1ccc(N(C(=O)c2ccccc2)S(=O)(=O)c2cc(OC)ccc2OC)cc1 [BRD9647]
toxicity to myeloma cells with and without stromal co-culture [2]: selectively toxic to stroma-dependent myeloma cells | viability of cell line panel [3]: inhibited stroma-dependent multiple myeloma (MM) cells, but not most cell lines | sensitivity of MOLP5 cells expressing wild-type AZIN1 [4]: wild-type AZIN1 expression in MOLP5 cells conferred resistance to BRD9647 | growth inhibition in presence of excess spermidine [5]: excess spermidine rescued BRD9647 growth inhibition | gene expression signature of treated cells [6]: under ER stress or amino acid deprivation | benzoylated lysines in treated cells [7]: an increase in benzoylated lysines

COc1ccc(N(C(=O)c2cc(F)cc(F)c2F)S(=O)(=O)c2cc(OC)ccc2OC)cc1 [Compound 4]
growth inhibition in MOLP5 cells compared with other analogs [1]: all mono substituted analogs appear to inhibit growth substantially more than the tri-fluorinated analog

COc1ccc(N(C(=O)c2ccccc2)S(=O)(=O)c2cc(OC)ccc2OC)cc1 [^13C-BRD9647]
covalent binding to purified proteins [8]: identify labeled lysines

COc1ccc(N(C(=O)c2ccccc2)S(=O)(=O)c2cc(OC)ccc2OC)cc1 [^14C-BRD9647]
protein binding in treated cells [9]: suggest protein binding or modification of proteins; also recorded: tight protein binding at ˜15 kD molecular weight | covalent binding to purified proteins [8]: covalent binding of ^14C-BRD9647 with purified proteins was possible
